Laboratory results published in PMC2794843, “Differential regulation of muscarinic M1 receptors by orthosteric and allosteric ligands” (BMC Pharmacology, 2009).

Tests used:
[1] = target: T1, human muscarinic M1 receptor (hM1) (Homo sapiens, UniProt P11229); assay: R-SAT, transiently transfected NIH-3T3 cells; assay type: cell-based; conditions: for pEC50: agonist
T1 construct: gene CHRM1; full-length hM1
T1 sequence (P11229 1-460): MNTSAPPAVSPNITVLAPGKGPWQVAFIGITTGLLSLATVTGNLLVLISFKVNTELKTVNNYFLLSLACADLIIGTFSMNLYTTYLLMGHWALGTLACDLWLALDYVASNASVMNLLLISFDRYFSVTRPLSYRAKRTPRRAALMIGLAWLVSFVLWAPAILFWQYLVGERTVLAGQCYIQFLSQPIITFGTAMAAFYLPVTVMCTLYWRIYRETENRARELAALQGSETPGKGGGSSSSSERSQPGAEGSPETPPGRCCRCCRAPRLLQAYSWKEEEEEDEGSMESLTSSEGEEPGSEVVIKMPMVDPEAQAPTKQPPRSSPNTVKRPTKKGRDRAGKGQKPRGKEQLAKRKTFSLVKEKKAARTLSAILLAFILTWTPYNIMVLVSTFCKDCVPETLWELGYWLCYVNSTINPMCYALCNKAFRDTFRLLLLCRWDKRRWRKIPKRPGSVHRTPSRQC
Description: R-SAT, transiently transfected NIH-3T3 cells on human muscarinic M1 receptor (hM1)

[2] = target: T1, human muscarinic M1 receptor (hM1); assay: PI hydrolysis, CHO-M1 cells; assay type: cell-based; conditions: partial agonist; 60 min, 37°C, 10 mM LiCl; allosteric component
Description: PI hydrolysis, CHO-M1 cells on human muscarinic M1 receptor (hM1)

| Compound | pEC50 [1] | further results |
| --- | --- | --- |
| CCCCC1CCN(CCCN2C(=O)COc3cc(Cl)ccc32)CC1 [AC-260515, 4-[3-(4-butyl-piperidin-1-yl)-propyl]-7-chloro-2H-benzo[b][1, 4]oxazin-3-one] | – | EC50 [1]: 251 nM |
| O=C1COc2cc(F)ccc2N1CCCN1CCC(OCC2CC2)CC1 [AC-262469, 4-[3-(4-cyclopropylmethyloxypiperidin-1-yl)propyl]-7-fluoro-2H-benzo[b][1, 4]oxazin-3-one] | 7.2 ± 0 | – |
| CCCCC1CCN(CCCN2C(=O)COc3cc(F)ccc32)CC1 [AC-260977, (R)-4-[3-(4-butylpiperidin-1-yl)propyl]-7-fluoro-2H-benzo[b][1, 4]oxazin-3-one] | 7.7 ± 0.1 | – |
| Clc1ccc2c(c1)N=C(N1CCNCC1)c1ccccc1N2 [NDMC] | – | PI Hydrolysis / pEC50 [2]: 7.1 ± 0.4 |
